Data taken from US20230338322A1, “GLYCERYLTRIACETATE (GTA) FOR USE IN IMPROVING BREATHING” (YISSUM RESEARCH DEVELOPMENT COMPANY OF THE HEBREW …, priority 2020, published 2023).

Key:
[1] = Treating asthmatic patients with GTA capsules
Description: These patients where orally administered softgel capsules filled with GTA at a daily dose of 12 ml, either 4 ml three times a day or 6 ml twice a day, during or immediately after meal. Treatment duration was 7 days.

[2] = Treating a bronchitis patient with GTA capsules; settings: softgel GTA 12 ml daily for a total of 5 days
[3] = test system: SARS-Cov2 (COVID-19 infection); test: Treating SARS-Cov2 infected patients (COVID-19 infection); assay type: in vivo, human; settings: all 11 patients, age 60-89, PCR positive with respiratory symptoms; softgel GTA 12 ml daily oral, 5-10 days, no other medication
Text: Eleven subjects, age 60-89 with various comorbidities, who were positive for COVID-19 infection by the PCR test and already developed respiratory-related symptoms of the disease. […] Treatment duration was between 5-10 days, according to recovery rate.

swine flu infection = settings: human, in vivo, po
[4] = Treating Long-COVID (post-corona) patients with GTA capsules; assay type: in vivo, human; settings: softgel GTA 12 ml daily oral
Text: Long COVID is a range of symptoms that can last weeks or months after first being infected with the virus that causes COVID-19 or can appear weeks after infection. 5 Long-Covid subjects who recovered from COVID-19 infection (=became PCR negative) but still have significant breathing problems that compromised their daily physical activities. […] Treatment duration was between 5-10 days, according to recovery rate.

[5] = Treating lung cancer patient with breathing difficulties
Description: The patient started taking pure glyceryl-triacetate (GTA), encapsulated in hard-shell Vegicaps (produced by Capsugel), 12 ml a day, divided among 3 meals. After 3 days the patient increased the dose to 24 ml a day and after additional 3 days they consumed a daily dose of 30 ml GTA for a period of 1 month.

[6] = Madhavarao 2009, Segel 2011; cited from earlier work
tumor-model = settings: GTA alone versus combination with chemotherapy (TMZ); WO13013061; cited from earlier work
[7] = aqueous solution; cited from earlier work

With `CC(=O)OCC(COC(C)=O)OC(C)=O` [GTA, Glyceryltriacetate] the “duration of the beneficial effect” value ([1]; after 7 days of GTA 12 ml daily, then 2nd round required) was 1-8 weeks, the patient-reported breathing ([1]; all 4 chronic asthmatic patients, softgel GTA 12 ml daily oral, 7 days, including giving up inhalation) was “outstanding improvement” and the “patient-reported coughing and breathing” value [2] was “less to no coughing, improved breathing”. For the same compound, the “recovery from the disease” value [3] was “fully recovered”, the “patient's healing compared to non-treated patients” value (swine flu infection) was “acceleration of patient's healing” and the “time to recovery from breathing problems” value ([4]; 5 Long-Covid patients) was 5 to 10 days. The “recovery from breathing problems” value ([4]; all 5 Long-Covid patients, no other medication) was “fully or almost fully recovered”, the “tumor mass on CT” value ([5]; GTA up to 30 ml daily for 1 month) was “no improvement in tumor mass” and the self-reported breathing ([5]; within 2 days after start of GTA 12 ml a day) was “breathing is much easier”. For the same compound, the “use of inhaled Salbutamol” value ([5]; within a week, GTA 12 ml then 24 ml a day) was “stopped taking Salbutamol”, the “walking distance without taking a break” value ([5]; within a week, before treatment not more than ~50 m) was “hundreds of meters” and the “therapeutic benefit in Canavan disease clinical trials” value [6] was “failed to show any therapeutic benefit”. For the same compound, the “improvement in in-vivo tumor-model” value (tumor-model) was “not by GTA by itself” and the water solubility limit [7] was 0.25%.
